This passage reports TGI results from PubChem BioAssay (NCI).

Among the test systems are UACC-257 melanoma; CAKI-1 renal; SK-MEL-5 melanoma; MDA-MB-435; NCI-H522 lung; NCI-H460 lung; PC-3 prostate; ACHN renal; OVCAR-4 ovarian; NCI-H226 lung; HCT-116 colon; UO-31 renal; SW-620 colon; K-562 leukemia.
Assay in all cases: DTP human tumour cell line panel, 48 h

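Briefly, cells in 96-well plates were exposed to five compound concentrations for 48 h, and endpoints were estimated by linear interpolation. TGI: total growth inhibition.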

Usually TGI stands for the concentration giving total growth inhibition. A higher TGI goes with lower sensitivity of the cells. With `CC(=O)NNc1nc(C)c(C(/C=C/c2ccccc2O)=N/NC(=O)c2ccncc2)s1`, the TGI in the test with UACC-257 melanoma, in the test with CAKI-1 renal, in the test with SK-MEL-5 melanoma, in the test with MDA-MB-435, in the test with NCI-H522 lung and in the test on NCI-H460 lung was greater than 100 µM in each case. In addition, the TGI in the test on PC-3 prostate, in the test on ACHN renal, with OVCAR-4 ovarian, in the test on NCI-H226 lung, with HCT-116 colon and in the test on UO-31 renal was greater than 100 µM in each case. The compound also displayed a TGI with SW-620 colon greater than 100 µM.

Consider `CCOC(=O)C(NC(=O)NCc1ccc(F)cc1)C(F)(F)F` (centres undefined), for which the TGI in the test on UACC-257 melanoma, in the test on SK-MEL-5 melanoma, with MDA-MB-435, with K-562 leukemia, in the test with PC-3 prostate and with ACHN renal was greater than 100 µM in each case. In addition, the TGI in the test on HCT-116 colon, with UO-31 renal and in the test with SW-620 colon was greater than 100 µM in each case.

For the compound `COc1cc(/C=C2\CCC(C)c3c2nc(N)c(C#N)c3-c2cc(OC)c(OC)c(OC)c2)cc(OC)c1OC` (centres undefined), the TGI in the test on UACC-257 melanoma, in the test with CAKI-1 renal, with SK-MEL-5 melanoma, in the test with MDA-MB-435, with K-562 leukemia and in the test with PC-3 prostate was greater than 100 µM in each case. The TGI was greater than 100 µM with ACHN renal, 78.1 µM with OVCAR-4 ovarian, greater than 100 µM with HCT-116 colon and greater than 100 µM in the test with SW-620 colon.

Turning to `CCOC(=O)Cc1nc2nn(Cc3ccccc3)cc2c(=O)[nH]1`, the TGI with UACC-257 melanoma, in the test with CAKI-1 renal, in the test with SK-MEL-5 melanoma, in the test on MDA-MB-435, in the test with NCI-H460 lung and in the test with K-562 leukemia was greater than 100 µM each time. For the same compound, the TGI in the test with ACHN renal, with OVCAR-4 ovarian, with NCI-H226 lung, with HCT-116 colon, in the test with UO-31 renal and in the test with SW-620 colon was greater than 100 µM in each case.

Take `Cc1ccc(-c2cnc(NC3OC(COC(=O)c4ccccc4)C(OC(=O)c4ccccc4)C(OC(=O)c4ccccc4)C3OC(=O)c3ccccc3)s2)cc1` (centres undefined): the TGI in the test on UACC-257 melanoma, in the test with SK-MEL-5 melanoma, in the test with MDA-MB-435, in the test on NCI-H522 lung, with NCI-H460 lung and with PC-3 prostate was greater than 100 µM each time. Also, the TGI in the test on ACHN renal, in the test on OVCAR-4 ovarian, in the test with NCI-H226 lung, in the test on HCT-116 colon, in the test on UO-31 renal and in the test on SW-620 colon was greater than 100 µM each time.

For the compound `OC1OC(c2ccc[nH]2)C(F)(F)C(F)(F)C1(F)F` (centres undefined), the concentration for total growth inhibition (TGI) with UACC-257 melanoma, with CAKI-1 renal, in the test with SK-MEL-5 melanoma, with MDA-MB-435, in the test with NCI-H522 lung and in the test with NCI-H460 lung was greater than 100 µM in each case. In addition, the TGI in the test on PC-3 prostate, with ACHN renal, with OVCAR-4 ovarian, in the test with NCI-H226 lung, in the test on HCT-116 colon and in the test on UO-31 renal was greater than 100 µM throughout. The compound also registered a TGI in the test on SW-620 colon greater than 100 µM.

Turning to `O=S(=O)([N-]c1nc2ccccc2nc1-[n+]1ccccc1)c1ccccc1`, the TGI in the test with UACC-257 melanoma, in the test on CAKI-1 renal, in the test with SK-MEL-5 melanoma, in the test on NCI-H522 lung, in the test on NCI-H460 lung and in the test on K-562 leukemia was greater than 100 µM in each case. In addition, the TGI with PC-3 prostate, with ACHN renal, with OVCAR-4 ovarian, in the test on NCI-H226 lung, in the test with HCT-116 colon and in the test with UO-31 renal was greater than 100 µM in each case.

With `O=C(O)c1ccccc1C(=O)OCC1CCCN2CCCCC12` (centres undefined), the TGI in the test with UACC-257 melanoma, with CAKI-1 renal, with SK-MEL-5 melanoma, with MDA-MB-435, with NCI-H460 lung and with K-562 leukemia was greater than 100 µM in each case. The TGI in the test with PC-3 prostate, with ACHN renal, in the test with OVCAR-4 ovarian, in the test on NCI-H226 lung, in the test with HCT-116 colon and in the test with UO-31 renal was greater than 100 µM in each case. In the test on SW-620 colon, this compound yielded a concentration for total growth inhibition (TGI) greater than 100 µM.

As for `Cn1c(=S)[nH]c2c(Cl)cc(Cl)cc2c1=O`, the TGI with UACC-257 melanoma, in the test with CAKI-1 renal, in the test on SK-MEL-5 melanoma, in the test on MDA-MB-435, with NCI-H522 lung and in the test with NCI-H460 lung was greater than 100 µM in each case. The TGI with PC-3 prostate, in the test with ACHN renal, in the test on OVCAR-4 ovarian, in the test on HCT-116 colon, in the test on UO-31 renal and in the test with SW-620 colon was greater than 100 µM each time.

In the case of `Clc1cccc(Cl)c1C1SCc2nc3cc4ccccc4cc3n21` (centres undefined), the TGI with UACC-257 melanoma, with CAKI-1 renal, with SK-MEL-5 melanoma, in the test on MDA-MB-435, in the test on NCI-H460 lung and in the test on K-562 leukemia was greater than 100 µM throughout. Also, the TGI in the test on PC-3 prostate, in the test on ACHN renal, in the test with OVCAR-4 ovarian, in the test with NCI-H226 lung, with HCT-116 colon and with UO-31 renal was greater than 100 µM each time. The TGI with SW-620 colon is greater than 100 µM.

Turning to `O=c1c2cc([N+](=O)[O-])cnc2sn1-c1ccc(Oc2ccccc2)cc1`, the TGI in the test on UACC-257 melanoma was greater than 100 µM; in the test with SK-MEL-5 melanoma it was greater than 100 µM; in the test with MDA-MB-435, greater than 100 µM; in the test on NCI-H522 lung, 34.1 µM; in the test with NCI-H460 lung, greater than 100 µM; in the test with PC-3 prostate, greater than 100 µM. The TGI with ACHN renal, in the test with OVCAR-4 ovarian, with NCI-H226 lung, in the test with HCT-116 colon, in the test with UO-31 renal and in the test with SW-620 colon was greater than 100 µM each time.

`COC(=O)c1cccc(C)c1C1CN=NC12Cc1c(ccc(C)c1C)C2=O` (centres undefined): the TGI is greater than 100 µM in the test with UACC-257 melanoma; greater than 100 µM in the test with CAKI-1 renal; 17.7 µM in the test with SK-MEL-5 melanoma; greater than 100 µM in the test on MDA-MB-435; greater than 100 µM in the test with NCI-H522 lung; greater than 100 µM in the test with NCI-H460 lung. The TGI with K-562 leukemia, in the test with ACHN renal, in the test with OVCAR-4 ovarian, in the test with NCI-H226 lung, in the test with HCT-116 colon and in the test on UO-31 renal was greater than 100 µM in each case. In addition, the TGI in the test with SW-620 colon is greater than 100 µM.

Turning to `CC1=C(C(=O)OC23CC4CC(CC(C4)C2)C3)C(c2ccccc2OC(F)F)C(C(=O)OC23CC4CC(CC(C4)C2)C3)=C(C)N1` (centres undefined), the TGI in the test with UACC-257 melanoma, in the test with CAKI-1 renal, with SK-MEL-5 melanoma, in the test with MDA-MB-435, in the test with NCI-H522 lung and in the test with NCI-H460 lung was greater than 100 µM each time. For the same compound, the TGI in the test with OVCAR-4 ovarian, in the test with NCI-H226 lung, in the test with HCT-116 colon, in the test on UO-31 renal and in the test on SW-620 colon was greater than 100 µM each time.

For the compound `C=CCN1C(=O)N/C(=C\c2ccc(Cl)cc2)C1=O`, the TGI in the test with UACC-257 melanoma, in the test with CAKI-1 renal, in the test on SK-MEL-5 melanoma, in the test with MDA-MB-435, with NCI-H522 lung and with NCI-H460 lung was greater than 100 µM in each case. The TGI in the test on K-562 leukemia, with ACHN renal, with OVCAR-4 ovarian, in the test with NCI-H226 lung, in the test with HCT-116 colon and in the test on SW-620 colon was greater than 100 µM in each case.

With `CC(=O)/C(=C/N1C(=O)CC(=O)NC1=S)C(=O)Nc1ccccc1C`, the TGI in the test with UACC-257 melanoma, with CAKI-1 renal, in the test on SK-MEL-5 melanoma, with MDA-MB-435, in the test with NCI-H460 lung and in the test on ACHN renal was greater than 100 µM throughout. Moreover, the TGI in the test on OVCAR-4 ovarian was greater than 100 µM; with NCI-H226 lung, greater than 100 µM; in the test on HCT-116 colon, greater than 100 µM; in the test with UO-31 renal, greater than 100 µM; with SW-620 colon it was 93.9 µM.

Consider `CC1(C)C[C@H]2C3=CC[C@@H]4[C@@]5(C)CC[C@H](O)C(C)(C)[C@@H]5CC[C@@]4(C)[C@]3(C)C[C@@H](O)[C@@]23C[C@@H]1OC3=O`, for which the TGI in the test on UACC-257 melanoma, in the test with CAKI-1 renal, in the test on SK-MEL-5 melanoma, in the test with MDA-MB-435, with NCI-H522 lung and in the test with NCI-H460 lung was greater than 100 µM each time. The TGI with K-562 leukemia, in the test on PC-3 prostate, with ACHN renal, in the test on OVCAR-4 ovarian, in the test with HCT-116 colon and in the test on UO-31 renal was greater than 100 µM each time. Besides, the TGI in the test on SW-620 colon was greater than 100 µM.

Turning to `CC/C(=C/OC)P1(=O)OC(C)(C)CN1C(C)(C)C` (centres undefined), the TGI in the test with UACC-257 melanoma, with CAKI-1 renal, with SK-MEL-5 melanoma, in the test with MDA-MB-435, in the test on NCI-H460 lung and in the test with K-562 leukemia was greater than 100 µM throughout. The TGI in the test with PC-3 prostate, in the test on ACHN renal, in the test on OVCAR-4 ovarian, in the test on NCI-H226 lung, in the test with HCT-116 colon and in the test on UO-31 renal was greater than 100 µM in each case. In the test with SW-620 colon, this compound returned a TGI greater than 100 µM.
